{"source": "patent US20260125654A1", "about": "“Method for Producing a Three-Dimensional Human Multiple-Myeloma Model” (Etablissement Français du Sang, priority 2022, published 2026)", "tested_on": "plasma cells in MM spheroids", "experiment": "Viability of plasma cells in 3D MM spheroids treated with melphalan, flow cytometry (CD38/CD138/DAPI)", "assay_type": "cell-based, human", "conditions": "for viability at 10 µM: Homo sapiens, 10 μM melphalan", "description": "Following a total bone marrow sample at diagnosis in patients with multiple myeloma (MM), MM plasma cells are separated and then counted in a Malassez cell. The cells were then used freshly for cocultures or were frozen in CRYOSTOR. The MM total marrow cells coming from another patient were seeded according to the initial number thereof and the cells were incubated at a temperature of 37° C. and under an atmosphere with 5% carbon dioxide for about 2 weeks. Once confluence was reached, mesenchymal stem/stromal cells (MSCs), endothelial cells and endothelial progenitors were treated with trypsin and counted.\nThe MSC cells, the endothelial cells and the endothelial progenitors treated with trypsin and the fresh or thawed plasmocytes in a ratio of 1 MSC per 2 plasmocytes were suspended on ULA (Ultra-Low adherence) plates in 50 μL of RPMI medium (10% FCS, 1% PS). The cells were then incubated at a temperature of 37° C. and an atmosphere with 5% carbon dioxide with stirring. 150 μL of RPMI medium were added after incubation for 24 h and the medium was renewed 2 times per week, removing 100 μL of supernatant.\nA treatment with […] melphalan was added to the spheroid culture medium 48 h after the formation thereof and the culture was continued for 14 days. The selection method was supplemented by a control situation, without the presence of a drug candidate. Part of the cultures was stopped after 7 (D+7) and 11 (D+11) days to analyze the viability of the plasma cells, whereas the rest of the cultures was stopped after 14 days of culture (D+14). Spheroid cells were mechanically dissociated at 1400 rpm with AccuMax® and then transferred into a tube suitable for flow cytometry and washed with PBS and labeled with the CD38 FITC and CD138 AF700 specific antibodies in MACS buffer. The cells were then incubated at 4° C. for 30 minutes, washed and resuspended in a MACS buffer medium and filtered at 70 μm, and finally labeled with the viability marker DAPI before passing through flow cytometry."}
{"smiles": "N[C@@H](Cc1ccc(N(CCCl)CCCl)cc1)C(=O)O", "note": "[melphalan]", "values": [{"measurement": "viability at 10 µM", "setting": "D+7", "value": 5, "unit": "%"}, {"measurement": "viability at 10 µM", "setting": "D+11", "value": "< 5", "unit": "%"}, {"measurement": "viability at 10 µM", "setting": "D+14", "value": "< 10", "unit": "%"}, {"measurement": "response to treatment of plasma cells within spheroids", "setting": "melphalan 10 μM", "value": "strong response"}]}
